Measured values reported in patent US11566007B2, “Ras inhibitors” (Revolution Medicines, Inc., priority 2019, dated 2023).
Where two headings read alike, the source gives them in different places.

What was measured:
[1] = biological target: K-Ras G12C (Homo sapiens (Human), UniProt P01116+P62937, G12C); assay: Ras-Raf (BRAF RBD) disruption / FRET / MOA assay, KRAS G12C; format: biochemical; conditions: KRAS G12C, Ras-Raf disruption/FRET/MOA assay
Method in brief: (§1)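 Ras:RAF disruption was scored as a fall in TR-FRET ratio relative to DMSO. Compound ranged in 3-fold steps over 10 points from 30 μM final; incubation ran 3 h at 25° C, detection antibodies a further 1.5 h. Reported as IC50.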

[2] = biological target: NRAS G12C (Homo sapiens (Human), UniProt P01111+P62937, G12C); assay: Ras-Raf (BRAF RBD) disruption / FRET / MOA assay, NRAS G12C; format: biochemical
Sequence of NRAS G12C (P01111 whole entry G12C): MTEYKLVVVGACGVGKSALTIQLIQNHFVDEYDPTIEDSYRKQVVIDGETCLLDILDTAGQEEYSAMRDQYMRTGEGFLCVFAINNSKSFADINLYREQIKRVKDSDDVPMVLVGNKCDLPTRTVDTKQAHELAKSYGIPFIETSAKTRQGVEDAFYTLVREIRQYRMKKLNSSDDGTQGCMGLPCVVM
Sequence of NRAS G12C (P62937 whole entry): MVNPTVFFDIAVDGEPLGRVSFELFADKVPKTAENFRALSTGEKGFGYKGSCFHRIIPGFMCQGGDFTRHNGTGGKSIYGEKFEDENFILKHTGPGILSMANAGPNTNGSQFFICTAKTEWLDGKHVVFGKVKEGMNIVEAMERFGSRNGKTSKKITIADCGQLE
Method in brief: as §1

[3] = biological target: KRAS G12V (Homo sapiens (Human), UniProt P01116+P62937, G12V); assay: Ras-Raf (BRAF RBD) disruption / FRET / MOA assay, KRAS G12V; format: biochemical
Sequence of KRAS G12V (P01116-2 other isoform, or with tags, fused parts or gaps G12V): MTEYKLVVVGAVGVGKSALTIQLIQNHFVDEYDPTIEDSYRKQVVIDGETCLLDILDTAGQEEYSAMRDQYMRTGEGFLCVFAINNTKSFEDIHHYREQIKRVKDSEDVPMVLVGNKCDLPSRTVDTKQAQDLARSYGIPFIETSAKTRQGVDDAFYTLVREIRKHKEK
Sequence of KRAS G12V (P62937 whole entry): as the sequence (P62937 whole entry) above
Method in brief: as §1

[4] = tested on: NCI-H358 cells (K-Ras G12C); assay: Potency assay: pERK in NCI-H358 cells; format: cell-based, human; conditions: Homo sapiens, NCI-H358; H358 KRAS G12C; read-out: pERK EC50
Method in brief: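 4 h cpd, 37 °C; 10-pt 3-fold series, 10 mM DMSO top stock, duplicates. Readout pERK: AlphaLISA SureFire Ultra or In-Cell Western (IR-800CW secondary, DRAQ5 DNA stain). IC50, 4-PL fit vs log conc.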

[5] = biological target: KRAS G12D (Homo sapiens (Human), UniProt P01116+P62937, G12D); assay: Ras-Raf (BRAF RBD) disruption / FRET / MOA assay, KRAS G12D; format: biochemical; conditions: class symbols
Sequence of KRAS G12D (P01116-2 other isoform, or with tags, fused parts or gaps G12D): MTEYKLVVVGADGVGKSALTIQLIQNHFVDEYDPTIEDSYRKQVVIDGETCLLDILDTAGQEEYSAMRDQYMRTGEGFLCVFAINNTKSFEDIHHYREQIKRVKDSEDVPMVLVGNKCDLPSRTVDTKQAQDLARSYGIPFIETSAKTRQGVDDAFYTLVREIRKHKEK
Sequence of KRAS G12D (P62937 whole entry): as the sequence (P62937 whole entry) above
Method in brief: as §1

[6] = biological target: K-Ras G13C (Homo sapiens (Human), UniProt P01116+P62937, G13C); assay: Ras-Raf (BRAF RBD) disruption / FRET / MOA assay, KRAS G13C; format: biochemical; conditions: KRAS G13C, Ras-Raf disruption/FRET/MOA assay
Sequence of K-Ras G13C (P01116-2 other isoform, or with tags, fused parts or gaps G13C): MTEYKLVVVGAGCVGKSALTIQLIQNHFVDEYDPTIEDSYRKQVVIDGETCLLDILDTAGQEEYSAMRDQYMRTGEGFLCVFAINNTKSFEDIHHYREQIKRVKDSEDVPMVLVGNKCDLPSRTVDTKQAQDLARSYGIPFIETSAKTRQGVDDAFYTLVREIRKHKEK
Sequence of K-Ras G13C (P62937 whole entry): as the sequence (P62937 whole entry) above
Method in brief: as §1

[7] = biological target: KRAS G12S (Homo sapiens (Human), UniProt P01116+P62937, G12S); assay: Ras-Raf (BRAF RBD) disruption / FRET / MOA assay, KRAS G12S; format: biochemical; conditions: class symbols
Sequence of KRAS G12S (P01116-2 other isoform, or with tags, fused parts or gaps G12S): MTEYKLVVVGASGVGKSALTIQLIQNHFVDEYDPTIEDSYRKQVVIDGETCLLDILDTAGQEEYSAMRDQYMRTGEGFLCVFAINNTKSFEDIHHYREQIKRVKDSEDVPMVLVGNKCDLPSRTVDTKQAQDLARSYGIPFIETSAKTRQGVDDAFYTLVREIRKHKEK
Sequence of KRAS G12S (P62937 whole entry): as the sequence (P62937 whole entry) above
Method in brief: as §1

[8] = tested on: NCI-H358 (K-Ras G12C); assay: CellTiter-Glo cell viability assay, NCI-H358; format: cell-based, human; conditions: Homo sapiens, NCI-H358, 120 h, NCI-H358, 5-day treatment; class symbols; read-out: Additional H358 Cell Viability assay data (K-Ras G12C, IC50)
Method in brief: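 Viability measured by CellTiter-Glo luminescence on day 5 following direct addition of compound to plated cells. Values expressed as percent of mean DMSO signal; curves fitted with a four-parameter logistic model.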

[9] = biological target: KRAS G13D (Homo sapiens (Human), UniProt P01116+P62937, G13D); assay: Ras-Raf (BRAF RBD) disruption / FRET / MOA assay, KRAS G13D; format: biochemical
Sequence of KRAS G13D (P01116-2 other isoform, or with tags, fused parts or gaps G13D): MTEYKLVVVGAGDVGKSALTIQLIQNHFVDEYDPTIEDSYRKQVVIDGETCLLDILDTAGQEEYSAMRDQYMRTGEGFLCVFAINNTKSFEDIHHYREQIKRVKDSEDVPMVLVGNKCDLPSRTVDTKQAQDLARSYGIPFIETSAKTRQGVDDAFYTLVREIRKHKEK
Sequence of KRAS G13D (P62937 whole entry): as the sequence (P62937 whole entry) above
Method in brief: as §1

[10] = biological target: KRAS WT (Homo sapiens (Human), UniProt P01116+P62937); assay: Ras-Raf (BRAF RBD) disruption / FRET / MOA assay, KRAS WT; format: biochemical
Sequence of KRAS WT (P01116-2 other isoform, or with tags, fused parts or gaps): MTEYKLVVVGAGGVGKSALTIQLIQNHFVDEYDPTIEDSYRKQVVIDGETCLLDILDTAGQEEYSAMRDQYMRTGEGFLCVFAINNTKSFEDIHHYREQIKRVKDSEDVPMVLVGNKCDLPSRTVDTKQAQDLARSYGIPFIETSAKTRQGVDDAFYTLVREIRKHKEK
Sequence of KRAS WT (P62937 whole entry): as the sequence (P62937 whole entry) above
Method in brief: as §1

[11] = read-out: IC50* KRAS G12C FRET data
[12] = read-out: IC50* NRAS G12C FRET data
[13] = read-out: IC50* KRAS G12V FRET data
[14] = Ras-Raf disruption/FRET/MOA assay, read-out: KRAS G12D FRET data IC50
[15] = read-out: IC50* KRAS G13C FRET data
[16] = Ras-Raf disruption/FRET/MOA assay, read-out: KRAS G12S FRET data IC50
[17] = read-out: IC50* KRAS G13D FRET data
[18] = read-out: IC50* KRAS WT FRET data

Sequence of K-Ras G12C (P01116-2 other isoform, or with tags, fused parts or gaps G12C): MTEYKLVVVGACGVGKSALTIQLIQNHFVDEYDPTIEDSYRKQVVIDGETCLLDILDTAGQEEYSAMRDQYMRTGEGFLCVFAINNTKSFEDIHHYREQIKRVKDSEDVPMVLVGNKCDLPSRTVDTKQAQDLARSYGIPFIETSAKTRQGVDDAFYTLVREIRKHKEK
Sequence of K-Ras G12C (P62937 whole entry): as the sequence (P62937 whole entry) above

Structure (SMILES) | IC50 ([1]; IC50* KRAS G12C FRET data) | IC50 ([2]; IC50* NRAS G12C FRET data) | IC50 ([3]; IC50* KRAS G12V FRET data) | EC50 [4] | IC50 ([5]; KRAS G12D FRET data IC50, Ras-Raf disruption/FRET/MOA assay) | IC50 ([6]; IC50* KRAS G13C FRET data) | IC50 ([7]; KRAS G12S FRET data IC50, Ras-Raf disruption/FRET/MOA assay) | IC50 [8] | IC50 ([9]; IC50* KRAS G13D FRET data) | IC50 ([10]; IC50* KRAS WT FRET data) | IC50 [1, 11] | IC50 [2, 12] | IC50 [3, 13] | IC50 [5, 14] | IC50 [6, 15] | IC50 [7, 16] | IC50 [9, 17] | IC50 [10, 18]
CCn1c(-c2cccnc2[C@H](C)OC)c2c3cc(ccc31)-c1cc(O)cc(c1)C[C@H](NC(=O)[C@H](C(C)C)N(C)C(=O)[C@H]1CCN(S(=O)(=O)C=C(C)C)C1)C(=O)N1CCC[C@H](N1)C(=O)OCC(C)(C)C2 (atropisomer, axis not shown) [Example A305] | 0.01 to 0.1 µM | 0.01 to 0.1 µM | 0.01 to 0.1 µM | < 5 µM | 1 to 10 µM | 0.01 to 0.1 µM | 0.1 to 1 µM | 0.01 to 0.1 µM | 0.1 to 1 µM | 0.1 to 1 µM | – | – | – | – | – | – | – | –
C/C=C(\C)S(=O)(=O)N1CC[C@H](C(=O)N(C)[C@H](C(=O)N[C@H]2Cc3cc(O)cc(c3)-c3ccc4c(c3)c(c(-c3cccnc3[C@H](C)OC)n4CC)CC(C)(C)COC(=O)[C@@H]3CCCN(N3)C2=O)C(C)C)C1 (atropisomer, axis not shown) [Example A306] | – | – | – | < 5 µM | – | – | – | 0.01 to 0.1 µM | – | – | 0.1 to 1 µM | 0.1 to 1 µM | 0.1 to 1 µM | 1 to 10 µM | 0.01 to 0.1 µM | 0.1 to 1 µM | 0.1 to 1 µM | 0.1 to 1 µM
CCn1c(-c2cccnc2[C@H](C)OC)c2c3cc(ccc31)-c1cccc(c1)C[C@H](NC(=O)[C@H](C(C)C)N(C)C(=O)[C@H]1CCN(S(=O)(=O)C=C(C)C)C1)C(=O)N1CCC[C@H](N1)C(=O)OCC(C)(C)C2 (atropisomer, axis not shown) [Example A307] | – | – | – | < 5 µM | – | – | – | > 1 µM | – | – | 1 to 10 µM | 1 to 10 µM | 1 to 10 µM | > 10 µM | 1 to 10 µM | > 10 µM | > 10 µM | > 10 µM
CC#CC(=O)N1CC[C@H](C(=O)N(C)[C@H](C(=O)N[C@H]2Cc3nc(cs3)-c3ccc4c(c3)c(c(-c3cccnc3[C@H](C)OC)n4CC)CC(C)(C)COC(=O)[C@@H]3CCCN(N3)C2=O)C2CCCC2)C1 (atropisomer, axis not shown) [Example A309] | – | – | – | < 5 µM | – | – | – | < 0.01 µM | – | – | 1 to 10 µM | 1 to 10 µM | 1 to 10 µM | > 10 µM | 1 to 10 µM | 1 to 10 µM | > 10 µM | 1 to 10 µM
CC#CC(=O)N1CC[C@H](C(=O)N(C)[C@H](C(=O)N[C@H]2Cc3cccc(c3)-c3ccc4c(c3)c(c(-c3cccnc3[C@H](C)OC)n4CC)CC(C)(C)COC(=O)[C@@H]3CCCN(N3)C2=O)C2CCCC2)C1 (atropisomer, axis not shown) [Example A310] | – | – | – | < 5 µM | – | – | – | 0.01 to 0.1 µM | – | – | 0.1 to 1 µM | 0.1 to 1 µM | 1 to 10 µM | > 10 µM | 1 to 10 µM | 1 to 10 µM | > 10 µM | 1 to 10 µM
C=CC(=O)N1C[C@@H]2[C@H](C1)[C@@H]2C(=O)N(C)[C@H](C(=O)N[C@H]1Cc2cc(O)cc(c2)-c2ccc3c(c2)c(c(-c2cccnc2[C@H](C)OC)n3CC)CC(C)(C)COC(=O)[C@@H]2CCCN(N2)C1=O)C(C)C (atropisomer, axis not shown) [Example A319] | – | – | – | < 5 µM | – | – | – | 0.01 to 0.1 µM | – | – | 0.01 to 0.1 µM | 0.01 to 0.1 µM | 0.01 to 0.1 µM | 0.01 to 0.1 µM | 0.01 to 0.1 µM | 0.01 to 0.1 µM | 0.01 to 0.1 µM | 0.01 to 0.1 µM
C=CC(=O)N1CC[C@H](C(=O)N(C)[C@H](C(=O)N[C@H]2Cc3cccc(c3)-c3ccc4c(c3)c(c(-c3cccnc3[C@H](C)OC)n4CC)CC(C)(C)COC(=O)[C@@H]3CCCN(N3)C2=O)C2CC2)C1 (atropisomer, axis not shown) [Example A320] | – | – | – | < 5 µM | – | – | – | 0.01 to 0.1 µM | – | – | 0.1 to 1 µM | 0.1 to 1 µM | 1 to 10 µM | > 10 µM | 1 to 10 µM | 1 to 10 µM | > 10 µM | 1 to 10 µM
